Source: patent US5968940A, “Retinoids and methods of use of same” (priority 1996, dated 1999)

What was measured:
[1] = tested on: Human promyelocytic leukemia HL-60 cells; test: Cell differentiation of HL-60 cells, nitroblue tetrazolium (NBT) reduction / morphology; format: cell-based
Method: Human promyelocytic leukemia HL-60 cells were cultured in RPMI-1640 medium supplemented by 10% heat-inactivated calf serum and 100 U/ml of penicillin plus 100 μg/ml of streptomycin. The flasks containing cells and medium were incubated in an incubator with 5% CO2 at 37° C. Log phase cells were seeded into the medium at a concentration of 1.2×10^5to 1.4×10^5 cells per ml and cultured in flasks containing 5 ml of medium. Each group consisted of three flasks. Different concentrations of coumarin-retinoids were added. At intervals following the addition of coumarin-retinoids to the cultures, a small portion of cells was removed and live cells were counted under a light microscope using a dye-exclusionmethod with trypan blue. Cell differentiation was judged in terms of morphology and nitroblue tetrazolium (NBT) reduction.
For a determination of NBT reducing activity, a portion of the coumarin-retinoid-treated cells was removed at intervals following treatment and centrifuged. After centrifugation, 0.5 ml of 0.1% NBT (containing 100 ng TPA) was added to each tube. The contents of the test tubes were then incubated for 1 hour at 37° C. Cell smears were prepared from the cell sediment and stained using the Wright-Giemsa technique. For each smear prepared, 200 cells were isolated for examination under a light microscope with an oil immersion lens. Cells stained with blue-black granules were considered NBT-positive cells. The 50% differentiation or effective concentration (ED50 or EC50) is shown in terms of molar (M) concentration of the […] tested.
For a determination of cell morphology, a cell smear was prepared at intervals following treatment of cells for each coumarin-retinoid concentration group using the Wright-Giemsa stain technique. Stained cells were counted and classified under a light microscope with an oil immersion lens. After treatment with coumarin-retinoids, the morphological development of HL-60 cells proceeded toward mature granulocytes. This development was manifested by decreased cell volume; a lower nuclei to cytoplasm ratio; smaller or missing nuclei; concentration of chromatin; and the appearance of a certain proportion of intermediate and late granuloblasts (progranulocytes), elongated rod granulocytes, and granulocytes with branched nuclei.
The protocols of Examples 14 and 21 were used, for the NBT and MTT assays, respectively.

[2] = tested on: bone abnormalities in mouse fetus; test: Bone abnormalities in mouse fetus; format: in vivo
Method: (§1) Female mice were examined by vaginal smear the morning after being caged with male mice, and if sperm or a vaginal plug was discovered, then the mice were determined to be pregnant. The retinoids were administered at the dosage indicated starting on the seventh day of pregnancy and continued once a day for the next ten days. On the 20th day after the female mice were determined to be pregnant, they were sacrificed by cervical dislocation. Both sides of the uterus were checked and the number of living embryos, dead embryos, and absorbed embryos were counted. The living embryos were further examined for bone abnormalities.
After the embryos became transparent, they were dissected and their skeletons were checked by observation under a microscope.

chondrosarcoma = test: Growth of chondrosarcoma in rats; format: in vivo; details: for Body Weight final: in g (unit assumed)
Source text: Transplantable chondrosarcomas obtained from Dr. Trown, Hoffman--La Roche Institute of Molecular Biology and Wistar rats obtained from the Breeding Center of Experimental Animals, Chinese Academy of Medical Sciences were used. According to the routine transplantation protocol as described in Cancer Treatment Reports 60(11):1647-1653 (1976) where the small pieces of chondrosarcoma tumor were implanted subcutaneously in the right inguinal region of rats using a trocar. Tumor-bearing rats were randomized to a control group and a treated group. Each group consisted of ten rats. […] Sixty days after transplantation, the rats were sacrificed and the tumor weight was determined. The inhibition rate was calculated according to the following formula: [formula]

fetus absorption in mice = test: Effect on fetus absorption in mice; format: in vivo
Method: as §1

[3] = tested on: croton oil induced ear edema in mice; test: Croton oil induced ear edema in mice; format: in vivo
Method: ICR mice (body weight 18-20 grams) were used. Each group consisted of 10 mice. After three dosage treatments, the left ears of the mice in both the treated group and the control group were painted with 2% croton oil in 0.05 ml ether. All the mice were sacrificed six hours later and the ears of both sides were punched by a corneal knife and weighed, the difference of the ear weight of both sides for each mouse was calculated. The t- Student test was used for statistical calculation. Croton oil induced ear edema is a classical assay for evaluation of cancer promotion.

[4] = tested on: Ornithine decarboxylase (ODC); test: Croton oil induced ornithine decarboxylase (ODC) activity in mouse epidermis; format: in vivo; details: ICR mice, single dose pretreatment; FIG. 1, n=3
Method: ICR mice (6-8 weeks old) were pretreated with a single dose of coumarin retinoid. On the third day, the animals received a topical application of 0.2 ml of 1% croton oil in acetone. All animals were sacrificed five hours after the croton oil treatment and the epidermis was separated by a brief heat treatment at 52° C. for 30 seconds and minced in a blender. The cell suspension and broth were separated by a centrifugation at 30,000×g for 30 seconds and the supernatant was obtained. Ornithine decarboxylase (ODC) enzyme activity was determined by measuring the release of CO2 from L-(^14 C)-ornithine and expressed as nmole CO2 /30 min/mg protein and the results for coumarin retinoid I-10 and I-6 are shown in FIG. 1. […] ODC activity is a critical parameter for monitoring cancer chemoprevention or promotion.

[5] = tested on: lipid peroxidation of rat liver microsome; test: Inhibition of Fe+2/Cys induced lipid peroxidation of rat liver microsome; format: biochemical
Method: Lipid peroxidation was induced by adding 1 mM FeSO4 and 10 mM cysteine to the microsome fraction of rat liver with the incubations being carried out at 37° C. for 30 minutes in a reaction mixture containing 10 mM phosphate buffer (pH 7.4). The reaction was terminated by the addition of 0.3 ml of 20% trichloroacetic acid solution. Thiobarbituric acid was then added and the mixture was boiled for 10 minutes. After cooling the test tubes under running tap water, the optical density at 532 nm was measured. Lipid peroxidation in both the treated groups and the control group was expressed in nmol MDA/mg protein. The percentage inhibition indicates the anti-oxidation properties of the coumarin retinoids tested.

[6] = tested on: Salmonella typhimurium strain TA102; test: Anti-mutagenicity (Ames), TA102; format: cell-based; details: MMS mutagen alone, 0.5 μl/plate
Method: (§2) An antimutagenicity assay was conducted according to the method developed by Ames et al. using Salmonella typhimurium strains TA 102 and TA 100 and mammalian microsomal enzymes. Beta-naphthoflavone and phenobarbital-induced rat liver supernatant (9000×g S-9 fraction) was used as the enzyme source for metabolic activation. The night before the experiment, certified bacterial solution (assessed for its biological characteristics and donated by Professor Ames) was inoculated into petri dishes. The petri dishes were then incubated for 15 hours at 37° C. From each petri dish, 0.1 ml of the bacterial solution was removed and added to sterile test tubes. To these test tubes, 0.1 ml of different concentrations of coumarin retinoids and 0.5 ml of either S-9 mixed solution or phosphate buffer were then added. The final solution for each test tube was incubated in a water bath at 37° C. for 20 minutes before adding 2 ml of agar solution. After thorough mixing, the solution was transferred into petri dishes and incubated once again at 37° C. for 48 hours. After incubation, the number of colonies in each petri dish were counted. The revertant numbers of the bacteria in control and treated groups were compared and the inhibition rate was calculated.

[7] = tested on: Salmonella typhimurium strain TA100; test: Anti-mutagenicity (Ames), TA100; format: cell-based; details: MMS mutagen alone, 0.5 μl/plate
Method: as §2

[8] = tested on: human acute myeloid leukemia (AML), neuroblastoma, teratocarcinoma, melanoma, and rat rhabdomyosarcoma cells; details: Smith et al. 1992; cited from earlier work
[9] = 10 mg/kg once a day from day 7 of pregnancy

In the case of `CC(=O)c1cc2c(OC(=O)/C=C(C)/C=C/C=C(C)/C=C/C3=C(C)CCCC3(C)C)cc(OC(=O)/C=C(C)/C=C/C=C(C)/C=C/C3=C(C)CCCC3(C)C)cc2oc1=O` [Compound I-10], the “NBT (+) %” value ([1]; 6.4 × 10^-6 M) is reported as 99%, the “NBT (+) %” value ([1]; 6.4 × 10^-7 M) is reported as 96% and the “NBT (+) %” value ([1]; 6.4 × 10^-8 M) is reported as 82%. The “NBT (+) %” value ([1]; 6.4 × 10^-9 M) was 33%, the “NBT (+) %” value ([1]; 6.4 × 10^-10 M) was 10% and the “Delayed Calcification, Occipital delay/fetus number” value ([2]; 20 mg/kg) was 22/66. The “Delayed Calcification, Sternum delay/fetus number” value ([2]; 20 mg/kg) was 14/66, the “Delayed Calcification, Occipital delay/fetus number” value ([2]; 40 mg/kg) was 15/81 and the “Delayed Calcification, Sternum delay/fetus number” value ([2]; 40 mg/kg) was 21/81. The “Inhibition rate (%)” value (chondrosarcoma; 5 mg/kg P.O. (Table 13)) was 14.8%, the “Tumor Weight” value (chondrosarcoma; 5 mg/kg P.O. (Table 13)) was 12.1 grams and the Animals final (chondrosarcoma; 5 mg/kg P.O., initial 10 (Table 13)) was 10. For the same compound, the “Body Weight final” value (chondrosarcoma; 5 mg/kg P.O., initial 97.8 (Table 13)) was 258.4, the “Tumor Weight” value (chondrosarcoma; 10 mg/kg P.O.) was 12.8 grams and the Animals final (chondrosarcoma; 10 mg/kg P.O., initial 10) was 9. The “Body Weight final” value (chondrosarcoma; 10 mg/kg P.O., initial 98.2) was 248.0, the “Tumor Weight” value (chondrosarcoma; 20 mg/kg P.O.) was 8.2 grams and the Animals final (chondrosarcoma; 20 mg/kg P.O., initial 10) was 9. The “Body Weight final” value (chondrosarcoma; 20 mg/kg P.O., initial 97.4) was 253.1, the “Fetus Absorption, absorbed number/implanted number” value (fetus absorption in mice; 20 mg/kg once a day from day 7 of pregnancy) was 0/104 and the “Fetus Absorption, absorbed number/implanted number” value (fetus absorption in mice; 40 mg/kg once a day from day 7 of pregnancy) was 0/107. The “Ear Edema (x ± SD)” value ([3]; 50 mg/kg) was 14.2 ± 2.3 mg, the “IR (%)” value ([3]; 50 mg/kg) was 14% and the “Ear Edema (x ± SD)” value ([3]; 100 mg/kg) was 11.3 ± 3.0 mg. The “IR (%)” value ([3]; 100 mg/kg) was 32% and the “inhibition of croton oil induced ODC activity” value [4] was “significantly inhibited the ODC activity induced by croton oil”.

With `CC(=O)c1cc2cc(Cl)c(OC(=O)/C=C(C)/C=C/C=C(C)/C=C/C3=C(C)CCCC3(C)C)cc2oc1=O` [Compound I-6] the “NBT (+) %” value ([1]; 10^-4 M) was 96%, the “NBT (+) %” value ([1]; 10^-5 M) was 81% and the “NBT (+) %” value ([1]; 10^-6 M) was 78%. The “NBT (+) %” value ([1]; 10^-7 M) was 31%, the “NBT (+) %” value ([1]; 10^-8 M) was 2% and the “Inhibition (%) of lipid peroxidation” value ([5]; 20 μM) was 9.6%. For the same compound, the “Inhibition (%) of lipid peroxidation” value ([5]; 200 μM) was 13.5%, the “Lipid Peroxidation” value ([5]; 200 μM, n = 3, p < 0.05) was 2.03 ± 0.16 μM MDA/mg protein and the “Ear Edema (x ± SD)” value ([3]; 50 mg/kg) was 13.4 ± 3.1 mg. For the same compound, the “IR (%)” value ([3]; 50 mg/kg) was 19%, the “Ear Edema (x ± SD)” value ([3]; 100 mg/kg) was 15.1 ± 2.7 mg and the “IR (%)” value ([3]; 100 mg/kg) was 9%. For the same compound, the “inhibition of croton oil induced ODC activity” value [4] was “significantly inhibited the ODC activity induced by croton oil”.

With `COS(C)(=O)=O` [MMS] the “his+ -revertants/per plate, TA102” value [6] was 1760 ± 288.4 revertants/per plate and the “his+ -revertants/per plate, TA100” value [7] was 1083.7 ± 99.3 revertants/per plate.

For `CC(=O)c1cc2ccc(OC(=O)/C=C(C)/C=C/C=C(C)/C=C/C3=C(C)CCCC3(C)C)c(C(=O)O)c2oc1=O` [Compound I-5], the “NBT (+) %” value ([1]; 10^-4 M) was 69%, the “NBT (+) %” value ([1]; 10^-5 M) was 89% and the “NBT (+) %” value ([1]; 10^-7 M) was 41%. For the same compound, the “Inhibition (%) of lipid peroxidation” value ([5]; 1 μM) was 7.3%, the “Inhibition (%) of lipid peroxidation” value ([5]; 10 μM) was 16.6% and the “Lipid Peroxidation” value ([5]; 10 μM, n = 3, p < 0.05) was 1.95 ± 0.18 μM MDA/mg protein. The “Inhibition (%) of lipid peroxidation” value ([5]; 100 μM) was 36.6% and the “Lipid Peroxidation” value ([5]; 100 μM, n = 3, p < 0.01) was 1.43 ± 0.16 μM MDA/mg protein.

For `CC1=C(/C=C/C(C)=C/C=C/C(C)=C/C(=O)O)C(C)(C)CCC1` [All Trans RA, all-trans-retinoic acid, reference compound], the “Delayed Calcification, Occipital delay/fetus number” value ([2]; 101 mg/kg (so in the source)) was 6/16, the “Delayed Calcification, Sternum delay/fetus number” value ([2]; 101 mg/kg (so in the source)) was 16/16 and the “Fetus Absorption (%)” value (fetus absorption in mice; [9]) was 73.7%. For the same compound, the “Fetus Absorption, absorbed number/implanted number” value (fetus absorption in mice; [9]) was 73/99, the “Absorbed Number” value (fetus absorption in mice; 15 mg/kg, implanted number 186, 15 pregnant mice) was 111 and the “induction of cell differentiation” value [8] was “induces cell differentiation”.
